Assay results taken from patent US20260132140A1, “IMIDAZOLYL-AMINO-PYRAZINE-CARBONITRILS AS CHK-1 INHIBITORS” (BenevolentAI Bio Limited, priority 2022, published 2026).

What was measured:
[1] = target: P-glycoprotein (P-gp, MDR1) (Homo sapiens, UniProt P08183); experiment: in vitro; settings: dog, MDCK-MDR1, pH 7.4
[2] = target: T1, RSK2 (Homo sapiens, UniProt P51812); experiment: RSK1-4 kinase assay (Eurofins KinaseProfiler, radiometric): RSK2; format: biochemical; settings: approximately ATP Km
T1 construct: purchased Eurofins (KinaseProfiler service)
Excerpt: (§1) The radiometric kinase activity assays were run at approximately the ATP Km for each kinase and the IC50 data is shown in Table 24.

[3] = target: T2, RSK1 (Homo sapiens, UniProt Q15418); experiment: RSK1-4 kinase assay (Eurofins KinaseProfiler, radiometric): RSK1; format: biochemical; settings: approximately ATP Km
T2 construct: purchased Eurofins (KinaseProfiler service)
Excerpt: as §1

[4] = in vitro; settings: dog, MDCK, pH 7.4
[5] = target: T3, RSK4 (Homo sapiens, UniProt Q9UK32); experiment: RSK1-4 kinase assay (Eurofins KinaseProfiler, radiometric): RSK4; format: biochemical; settings: approximately ATP Km
T3 construct: purchased Eurofins (KinaseProfiler service)
Excerpt: as §1

[6] = target: T4, BCRP (Homo sapiens, UniProt Q9UNQ0); experiment: in vitro; settings: dog, pH 7.4
T4 sequence (Q9UNQ0 1-655): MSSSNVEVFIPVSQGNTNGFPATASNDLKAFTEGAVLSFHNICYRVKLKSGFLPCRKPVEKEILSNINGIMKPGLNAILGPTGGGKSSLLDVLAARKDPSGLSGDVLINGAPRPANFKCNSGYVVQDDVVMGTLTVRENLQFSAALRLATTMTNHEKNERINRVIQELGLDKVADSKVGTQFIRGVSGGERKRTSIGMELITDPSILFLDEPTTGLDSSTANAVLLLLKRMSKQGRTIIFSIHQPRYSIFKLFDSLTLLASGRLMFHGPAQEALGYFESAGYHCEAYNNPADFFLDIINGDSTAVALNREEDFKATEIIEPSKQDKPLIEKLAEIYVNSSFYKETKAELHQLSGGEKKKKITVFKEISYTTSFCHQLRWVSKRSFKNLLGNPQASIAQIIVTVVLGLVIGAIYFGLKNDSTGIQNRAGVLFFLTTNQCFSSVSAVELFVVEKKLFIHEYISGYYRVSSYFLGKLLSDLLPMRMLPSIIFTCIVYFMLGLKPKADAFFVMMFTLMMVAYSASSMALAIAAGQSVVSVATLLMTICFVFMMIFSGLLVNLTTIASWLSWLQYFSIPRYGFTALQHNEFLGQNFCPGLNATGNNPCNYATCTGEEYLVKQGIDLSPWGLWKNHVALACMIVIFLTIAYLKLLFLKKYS

[7] = target: T5, RSK3 (Homo sapiens, UniProt Q15349); experiment: RSK1-4 kinase assay (Eurofins KinaseProfiler, radiometric): RSK3; format: biochemical; settings: approximately ATP Km
T5 construct: purchased Eurofins (KinaseProfiler service)
Excerpt: as §1

[8] = system: GBM LN18 cells; experiment: In vitro cell viability assay (Cell Titre Glo, 72 hours); format: cell-based; settings: Homo sapiens, LN-18, read-out: LN18 pIC50 (converted)
Procedure, shortened: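 LN18 glioblastoma cells were exposed to compound for 72 h in a 10-point concentration series up to 10 μM. Viability was read as cellular ATP by CellTiter-Glo luminescence, and % inhibition was calculated against the vehicle and inhibited control wells on each plate.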

[9] = system: pChk1(Ser296) in SW620 cells; experiment: pChk1(Ser296) sandwich ELISA, cell-based on-target kinase activity; settings: Homo sapiens, SW-620, neocarzinostatin 7.5 μM, 2 hours, read-out: SW620 pIC50 (converted)
Method: ELISA assays were performed as per the manufacturer's protocol. […] Selected compounds of the invention were tested as a 8-point concentration response up to a maximum concentration of either 1 μM, 3 μM or 10 μM. The percent (%) effect i.e. inhibition at each concentration of compound was calculated based on, and relative to, the amount of inhibition produced in the vehicle control and inhibited control wells contained within each plate.

[10] = Determination of CNS penetration in vivo, unbound brain to plasma ratio (Kpuu); settings: male, Sprague Dawley, rat, iv, 1 mg/kg
[11] = target: T6, human Chk1 kinase (Homo sapiens, UniProt O14757); experiment: biochemical
T6 sequence (O14757 1-476): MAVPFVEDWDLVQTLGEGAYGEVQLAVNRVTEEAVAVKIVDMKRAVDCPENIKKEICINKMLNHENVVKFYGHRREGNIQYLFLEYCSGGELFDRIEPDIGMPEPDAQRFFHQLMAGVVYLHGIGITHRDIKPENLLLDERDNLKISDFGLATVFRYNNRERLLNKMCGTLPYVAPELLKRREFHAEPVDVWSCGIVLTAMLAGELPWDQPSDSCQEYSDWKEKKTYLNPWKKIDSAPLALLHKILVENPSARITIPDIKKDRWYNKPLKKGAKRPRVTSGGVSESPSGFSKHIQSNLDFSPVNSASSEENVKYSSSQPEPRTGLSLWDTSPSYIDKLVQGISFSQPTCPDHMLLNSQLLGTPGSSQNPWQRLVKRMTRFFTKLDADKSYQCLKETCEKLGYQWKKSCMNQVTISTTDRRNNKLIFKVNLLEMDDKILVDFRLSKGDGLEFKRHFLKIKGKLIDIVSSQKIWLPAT

[12] = target: human Chk2 kinase (Homo sapiens, UniProt O96017); experiment: biochemical
[13] = system: 373 human wild-type kinases; experiment: Kinome selectivity, Eurofins KinaseProfiler kinase screen; format: biochemical; settings: panel of 373 human wild-type kinases, approximately ATP Km, top concentration 10 μM
Excerpt: The radiometric kinase activity assays were run at approximately the ATP Km for each kinase.

Chain of P-glycoprotein (P-gp, MDR1) (P08183 whole entry): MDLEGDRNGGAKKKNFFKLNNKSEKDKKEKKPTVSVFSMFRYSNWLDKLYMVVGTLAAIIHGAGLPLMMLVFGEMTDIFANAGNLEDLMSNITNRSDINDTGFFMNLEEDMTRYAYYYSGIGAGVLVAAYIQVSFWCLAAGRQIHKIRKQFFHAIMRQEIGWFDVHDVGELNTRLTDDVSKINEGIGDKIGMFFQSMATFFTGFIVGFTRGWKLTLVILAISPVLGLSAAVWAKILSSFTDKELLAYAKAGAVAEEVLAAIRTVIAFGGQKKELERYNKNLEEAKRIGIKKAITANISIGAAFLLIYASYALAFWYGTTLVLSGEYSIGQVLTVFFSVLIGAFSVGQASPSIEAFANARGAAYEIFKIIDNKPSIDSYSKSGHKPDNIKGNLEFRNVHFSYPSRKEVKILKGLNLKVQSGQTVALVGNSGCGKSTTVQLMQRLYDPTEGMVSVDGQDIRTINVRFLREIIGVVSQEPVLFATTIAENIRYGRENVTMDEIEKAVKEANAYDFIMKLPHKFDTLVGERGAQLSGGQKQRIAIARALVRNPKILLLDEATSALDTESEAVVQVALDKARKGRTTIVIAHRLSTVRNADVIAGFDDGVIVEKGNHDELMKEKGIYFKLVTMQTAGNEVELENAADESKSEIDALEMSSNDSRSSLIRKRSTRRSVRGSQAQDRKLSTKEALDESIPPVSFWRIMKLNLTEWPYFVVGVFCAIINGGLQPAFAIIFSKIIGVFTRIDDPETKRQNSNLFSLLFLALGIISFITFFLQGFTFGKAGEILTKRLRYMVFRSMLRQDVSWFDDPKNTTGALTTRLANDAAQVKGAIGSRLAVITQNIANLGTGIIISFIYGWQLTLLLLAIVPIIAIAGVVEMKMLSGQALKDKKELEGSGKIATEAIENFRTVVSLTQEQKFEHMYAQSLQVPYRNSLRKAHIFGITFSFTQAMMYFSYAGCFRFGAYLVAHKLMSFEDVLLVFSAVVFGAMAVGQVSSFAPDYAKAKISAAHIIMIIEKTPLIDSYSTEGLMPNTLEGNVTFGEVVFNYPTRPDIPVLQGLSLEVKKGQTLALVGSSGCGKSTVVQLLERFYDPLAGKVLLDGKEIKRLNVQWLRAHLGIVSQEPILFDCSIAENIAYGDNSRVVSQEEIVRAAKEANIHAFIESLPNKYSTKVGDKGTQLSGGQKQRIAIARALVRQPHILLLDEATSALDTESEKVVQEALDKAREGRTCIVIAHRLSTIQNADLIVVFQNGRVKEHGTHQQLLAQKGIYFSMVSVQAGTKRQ
T5 sequence (Q15349 whole entry): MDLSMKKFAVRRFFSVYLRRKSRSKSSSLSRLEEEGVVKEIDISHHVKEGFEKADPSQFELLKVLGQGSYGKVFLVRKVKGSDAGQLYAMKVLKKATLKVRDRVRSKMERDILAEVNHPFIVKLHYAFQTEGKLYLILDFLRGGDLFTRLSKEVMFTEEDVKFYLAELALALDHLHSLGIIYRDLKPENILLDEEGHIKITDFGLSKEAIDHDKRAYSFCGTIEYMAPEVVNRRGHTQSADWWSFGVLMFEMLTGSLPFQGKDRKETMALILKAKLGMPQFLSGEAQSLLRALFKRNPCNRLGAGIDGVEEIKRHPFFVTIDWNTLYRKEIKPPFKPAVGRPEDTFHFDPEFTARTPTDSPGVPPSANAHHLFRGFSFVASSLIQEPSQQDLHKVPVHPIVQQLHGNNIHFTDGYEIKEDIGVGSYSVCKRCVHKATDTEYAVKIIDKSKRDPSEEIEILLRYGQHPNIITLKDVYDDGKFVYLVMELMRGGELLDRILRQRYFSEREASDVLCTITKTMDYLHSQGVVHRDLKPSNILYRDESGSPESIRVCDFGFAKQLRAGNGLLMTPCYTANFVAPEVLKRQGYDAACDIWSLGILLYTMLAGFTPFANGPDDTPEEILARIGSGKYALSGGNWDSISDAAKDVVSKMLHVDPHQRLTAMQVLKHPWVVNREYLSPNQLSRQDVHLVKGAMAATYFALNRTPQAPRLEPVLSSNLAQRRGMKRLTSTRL
T1 sequence (P51812 whole entry): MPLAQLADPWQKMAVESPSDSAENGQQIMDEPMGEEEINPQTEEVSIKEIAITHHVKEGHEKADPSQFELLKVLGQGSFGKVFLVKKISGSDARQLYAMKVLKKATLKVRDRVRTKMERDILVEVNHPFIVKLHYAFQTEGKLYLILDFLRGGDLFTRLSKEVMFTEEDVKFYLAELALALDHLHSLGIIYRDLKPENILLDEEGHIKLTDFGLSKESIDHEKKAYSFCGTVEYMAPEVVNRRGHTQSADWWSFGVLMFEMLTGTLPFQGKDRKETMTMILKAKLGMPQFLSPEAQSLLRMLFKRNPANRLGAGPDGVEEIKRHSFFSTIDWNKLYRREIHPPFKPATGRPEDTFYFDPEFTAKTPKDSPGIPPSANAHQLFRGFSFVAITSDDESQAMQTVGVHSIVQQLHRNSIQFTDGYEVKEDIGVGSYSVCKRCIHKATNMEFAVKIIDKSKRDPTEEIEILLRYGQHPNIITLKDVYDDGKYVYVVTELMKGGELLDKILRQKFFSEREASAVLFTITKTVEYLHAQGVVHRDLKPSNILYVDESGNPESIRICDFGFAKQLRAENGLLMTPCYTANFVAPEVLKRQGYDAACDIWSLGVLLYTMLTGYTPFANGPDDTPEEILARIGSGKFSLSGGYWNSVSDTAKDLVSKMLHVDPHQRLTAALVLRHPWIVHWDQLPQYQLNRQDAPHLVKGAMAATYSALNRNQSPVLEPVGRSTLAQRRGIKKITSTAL
T3 sequence (Q9UK32 whole entry): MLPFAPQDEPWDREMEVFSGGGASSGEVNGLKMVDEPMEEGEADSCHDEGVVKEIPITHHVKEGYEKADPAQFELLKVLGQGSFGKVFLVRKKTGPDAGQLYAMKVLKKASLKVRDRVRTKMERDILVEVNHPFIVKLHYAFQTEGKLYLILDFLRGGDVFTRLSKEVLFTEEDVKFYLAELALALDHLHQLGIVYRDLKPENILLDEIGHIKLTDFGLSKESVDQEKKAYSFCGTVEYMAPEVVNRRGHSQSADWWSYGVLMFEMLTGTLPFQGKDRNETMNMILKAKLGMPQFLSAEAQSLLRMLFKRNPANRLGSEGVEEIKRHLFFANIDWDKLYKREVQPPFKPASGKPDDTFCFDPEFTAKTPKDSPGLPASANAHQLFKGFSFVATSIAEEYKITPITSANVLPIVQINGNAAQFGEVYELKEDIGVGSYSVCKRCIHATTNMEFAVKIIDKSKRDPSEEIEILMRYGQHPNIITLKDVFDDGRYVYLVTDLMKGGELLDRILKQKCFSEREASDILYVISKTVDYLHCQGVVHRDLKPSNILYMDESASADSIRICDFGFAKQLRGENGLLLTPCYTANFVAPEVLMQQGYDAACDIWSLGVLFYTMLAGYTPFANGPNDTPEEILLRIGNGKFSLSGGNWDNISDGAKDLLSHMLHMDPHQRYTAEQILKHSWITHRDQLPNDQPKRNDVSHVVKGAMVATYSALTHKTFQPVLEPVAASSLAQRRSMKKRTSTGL
T2 sequence (Q15418 whole entry): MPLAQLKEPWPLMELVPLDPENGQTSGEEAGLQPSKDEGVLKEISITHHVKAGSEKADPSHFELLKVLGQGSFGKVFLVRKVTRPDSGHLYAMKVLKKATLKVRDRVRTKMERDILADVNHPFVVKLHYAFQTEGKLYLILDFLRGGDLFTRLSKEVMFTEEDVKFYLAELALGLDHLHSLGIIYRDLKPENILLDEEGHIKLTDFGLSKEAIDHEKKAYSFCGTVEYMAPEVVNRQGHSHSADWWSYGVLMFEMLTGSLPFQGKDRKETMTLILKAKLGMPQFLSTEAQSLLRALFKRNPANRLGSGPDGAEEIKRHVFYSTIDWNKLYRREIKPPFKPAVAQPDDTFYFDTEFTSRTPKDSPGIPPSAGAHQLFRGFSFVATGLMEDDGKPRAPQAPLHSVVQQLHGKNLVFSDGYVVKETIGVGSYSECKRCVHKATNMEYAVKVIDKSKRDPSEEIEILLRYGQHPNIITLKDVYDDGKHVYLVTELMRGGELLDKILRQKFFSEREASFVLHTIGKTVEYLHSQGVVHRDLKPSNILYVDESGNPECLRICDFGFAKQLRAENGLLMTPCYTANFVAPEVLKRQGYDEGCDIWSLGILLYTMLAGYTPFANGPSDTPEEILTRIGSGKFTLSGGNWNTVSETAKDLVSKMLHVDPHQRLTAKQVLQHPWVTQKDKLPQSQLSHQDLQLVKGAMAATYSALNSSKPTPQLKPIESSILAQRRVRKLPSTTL
Chain of human Chk2 kinase (O96017 whole entry): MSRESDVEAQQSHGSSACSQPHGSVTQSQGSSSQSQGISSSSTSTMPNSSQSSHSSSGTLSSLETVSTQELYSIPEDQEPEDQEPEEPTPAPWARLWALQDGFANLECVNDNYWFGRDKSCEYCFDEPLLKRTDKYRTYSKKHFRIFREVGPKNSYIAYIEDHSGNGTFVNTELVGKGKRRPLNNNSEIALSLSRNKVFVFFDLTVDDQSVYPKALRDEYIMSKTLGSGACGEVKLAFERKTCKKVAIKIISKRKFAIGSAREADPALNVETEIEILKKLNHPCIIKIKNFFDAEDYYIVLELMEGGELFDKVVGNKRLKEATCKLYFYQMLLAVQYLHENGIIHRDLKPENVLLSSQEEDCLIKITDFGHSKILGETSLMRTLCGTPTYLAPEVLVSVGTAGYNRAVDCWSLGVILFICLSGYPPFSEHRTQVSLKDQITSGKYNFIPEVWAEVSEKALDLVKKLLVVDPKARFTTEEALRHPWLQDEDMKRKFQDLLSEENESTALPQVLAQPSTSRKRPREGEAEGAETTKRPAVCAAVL

Compound	efflux ratio at 60 min, 1 μM [1]	Papp A→B at 60 min, 1 μM [4] [×10⁻⁶ cm/s]	efflux ratio at 60 min, 1 μM [6]	IC50 [11] [nM]	IC50 [12] [nM]	IC50 [2] [nM]	IC50 [3] [nM]	IC50 [5] [nM]	IC50 [7] [nM]	IC50 [8] [nM]	IC50 [9] [nM]	Kp uu at 0.25 h [10]	Number of 372 kinases inhibited relative to Chk1 IC50 Within 10-fold [13]	Number of 372 kinases inhibited relative to Chk1 IC50 Within 100-fold [13]
C[C@@H]1C[C@@H](N2CCC2)CN1c1ccc(-n2cnc(Nc3cnc(C#N)cn3)c2)cc1 [Example 98, 5-((1-(4-((2R,4R)-4-(Azetidin-1-yl)-2-methylpyrrolidin-1-yl)phenyl)-1H-imidazol-4-yl)amino)pyrazine-2-carbonitrile]	–	–	–	–	–	786	3550	2470	651	< 1000	< 1000	0.8	–	–
CN1CCN(c2ccc(-n3cnc(Nc4cnc(C#N)cn4)c3)cc2)CC1 [Example 143, 5-((1-(4-(4-Methylpiperazin-1-yl)phenyl)-1H-imidazol-4-yl)amino)pyrazine-2-carbonitrile]	–	–	–	10 to 31.6	10000 to 100000	3040	9450	> 10000	2070	–	–	0.4	3	10
CN(C)[C@@H]1CCN(c2ccc(-n3cnc(Nc4cnc(C#N)cn4)c3)nc2)C1 [Example 50, (R)-5-((1-(5-(3-(Dimethylamino)pyrrolidin-1-yl)pyridin-2-yl)-1H-imidazol-4-yl)amino)pyrazine-2-carbonitrile]	–	–	–	–	–	6670	4470	3140	1020	< 1000	< 1000	0.5	–	–

The next lines start with results.

efflux ratio at 60 min, 1 μM [1]	Papp A→B at 60 min, 1 μM [4] [×10⁻⁶ cm/s]	efflux ratio at 60 min, 1 μM [6]	IC50 [11] [nM]	IC50 [12] [nM]	Compound	IC50 [2] [nM]	IC50 [3] [nM]	IC50 [5] [nM]	IC50 [7] [nM]	IC50 [8] [nM]	IC50 [9] [nM]	Kp uu at 0.25 h [10]	Number of 372 kinases inhibited relative to Chk1 IC50 Within 10-fold [13]	Number of 372 kinases inhibited relative to Chk1 IC50 Within 100-fold [13]
16	19	12	–	–	COc1cc(C2(F)CCN(C)CC2)ccc1-c1cc(Nc2cnc(C#N)cn2)n[nH]1 [Comparator Ex. 4, 5-((5-(4-(4-Fluoro-1-methylpiperidin-4-yl)-2-methoxyphenyl)-1H-pyrazol-3-yl)amino)pyrazine-2-carbonitrile, reference compound]	59	329	58	35	–	–	–	–	–
0.7	84	1.4	31.6 to 100	10000 to 100000	N#Cc1cnc(Nc2cn(-c3ccc(N4CCN(CCF)CC4)cc3)cn2)cn1 [Example 183, 5-((1-(4-(4-(2-Fluoroethyl)piperazin-1-yl)phenyl)-1H-imidazol-4-yl)amino)pyrazine-2-carbonitrile]	–	–	–	–	–	–	–	–	–
0.9	43	1.1	100 to 316	> 100000	N#Cc1cnc(Nc2cn(-c3ccc(N4CCN(CCC(F)(F)F)CC4)cc3)cn2)cn1 [Example 184, 5-((1-(4-(4-(3,3,3-Trifluoropropyl)piperazin-1-yl)phenyl)-1H-imidazol-4-yl)amino)pyrazine-2-carbonitrile]	–	–	–	–	–	–	–	–	–
